Key:
[1] = system: human breast cancer cell lines; assay: three-dimensional (3D) growth in Matrigel; assay type: cell-based; details: 3D Matrigel, 2.5% FBS, read-out: IC50 in cells tested in 3D
Procedure: Cells were seeded in 8-well chamber slides in growth-factor reduced Matrigel (BD Biosciences, San Jose Calif., USA)±compound A according to published methods. Fresh medium and drugs were replenished every third day. Colonies were photographed with an inverted light microscope with an ocular magnification of 10 times on the days recited in figures herein.
A panel of breast cancer cell lines with dysregulated PI3K activity was treated with increasing doses of compound A under two- and three-dimensional (2D and 3D) growth conditions. All experiments were conducted in 2.5% FBS-containing media, unless otherwise stated. […] This was further confirmed by immunoblot analysis of biomarkers of cell death and G1-S cell cycle transition in lysates from cells treated for 24 hours with compound A as shown in FIG. 10B.

[2] = biological target: p110α catalytic subunit of PI3K (Homo sapiens, UniProt P42336); assay: in vitro PI3K assay (PI3K-induced ATP consumption); assay type: biochemical; details: read-out: in vitro IC50 against p110α
Text: Compounds of formula I have been tested using the assay described in Biological Example 1 of WO2007044729 and have been determined to be PI3K inhibitors. As such, compounds of formula I are useful for treating diseases, particularly cancer in which PI3K activity contributes to the pathology and/or symptomatology of the disease. For example, cancer in which PI3K activity contributes to its pathology and/or symptomatology include breast cancer, colon cancer, rectal cancer, endometrial cancer, gastric carcinoma, glioblastoma, hepatocellular carcinoma, small cell lung cancer, non-small cell lung cancer, melanoma, ovarian cancer, pancreatic cancer, prostate carcinoma, acute myelogenous leukemia (AML), chronic myelogenous leukemia (CML), and thyroid carcinoma, and the like.
Suitable in vitro assays for measuring PI3K activity and the inhibition thereof by compounds are known. Typically, the assay will measure PI3K-induced ATP consumption. […] Cellular activity can be determined using assays as described in Biological Examples 2, 3, and 4 of WO2007044729. […]
The purpose of the present study is to identify kinases and kinase-regulated signaling pathways that compensate for PI3K inhibition in human breast cancer cells. […] Gene expression from three independent experiments was measured using the Gene titan 3′ microarray. *, p<0.05; **, p<0.01 versus 0 hours, as shown in FIG. 5. […]

BT474 xenografts = assay: BT474 xenograft experiments; assay type: in vivo, mice; details: trastuzumab 30 mg/kg twice-a-week i.p.; lapatinib 100 mg/kg daily; compound A 100 mg/kg daily gavage; 28 days
Procedure: Tumor volumes were recorded twice-a-week. Each data point represents the mean tumor volume in mm^3±SE of 8 mice per type of treatment. CR=complete response to treatment.
Animal experiments were approved by the Institutional Animal Care Committee of Vanderbilt University Medical Center (VUMC). Mice were housed in the accredited Animal Care Facility of the VUMC. A 17β-estradiol pellet (Innovative Research of America) was injected subcutaneously (s.c.) into each 6- to 7-week-old athymic female mice (Harlan Sprague Dawley, Inc.) the day before tumor cell injection. BT474 cells (3×10^6) mixed 1:1 with Matrigel (BD Biosciences) were injected s.c. into the right flank of each mouse. Tumor diameters were measured with calipers twice-a-week and volume in mm^3 calculated with the formula: volume=width^2×length/2. […] Mice were euthanized after 28 days of treatment.
There was no significant drug-related toxicity in any of the treatment arms.

[3] = system: HER3, pHER3^Y1289, pAKT^S473; assay: immunohistochemistry of BT474 xenografts; assay type: in vivo, mice; details: day 28
Procedure: FIG. 18B depicts photomicrographs of immunohistochemistry sections from formalin-fixed, paraffin-embedded tumor blocks. Xenografts were harvested on day 28, 1 hour after the last dose of lapatinib and/or compound A. Antibodies used were against HER3, pHER3^Y1289, and pAKT^S473. Photographs were taken at 400× magnification (scale bar: 50 μm).
All tumor samples (collected within 1 hour of last treatment) were fixed in 10% neutral buffered formalin for 24 hours at room temperature, followed by dehydration and paraffin embedding. Immunostaining was done on 5-μm tissue sections. After deparaffinization in xylene and graded alcohols heat-induced antigen retrieval was performed in a pH 6.0 citrate buffer followed by incubation with 3% hydrogen peroxide for 20 minutes, with protein block (Dako) for 10 minutes, and finally with primary antibody overnight at 4° C. The Envision Visualization System (Dako, Carpinteria, Calif., USA) was used, followed by DAB as chromagen and counterstained with hematoxylin. Tumor sections were studied on a light microscope with an ocular magnification of 400 times. Average percentage and intensity of tumor cell staining was calculated as a histoscore (H-score) (as described in Goulding, H., et al. (1995), Hum. Pathol. 26:291-294, which is incorporated herein by reference in its entirety). An expert pathologist (MGK) scoring the sections was blinded to the type of treatment.
Using immunohistochemistry (IHC), experiments were performed to examine pharmacodynamic biomarkers of target inactivation in xenografts after 28 days of treatment. […] Therefore, experiments were performed to quantify differences in pAKT^S473 expression in both cytoplasmic and nuclear compartments in xenograft sections.

HER3 protein = assay: half-life of the HER3 protein with cycloheximide; assay type: cell-based, human; details: BT474 cells
Procedure: The half-life of the HER3 protein in absence and presence of compound A was determined using cycloheximide, an inhibitor of protein synthesis. […] Next the levels of HER3 mRNA was examined by qPCR upon inhibition of PI3K over a time course using the approximate IC50 of compound A (6 μM).

p110α catalytic subunit of PI3K, sequence (P42336 whole entry): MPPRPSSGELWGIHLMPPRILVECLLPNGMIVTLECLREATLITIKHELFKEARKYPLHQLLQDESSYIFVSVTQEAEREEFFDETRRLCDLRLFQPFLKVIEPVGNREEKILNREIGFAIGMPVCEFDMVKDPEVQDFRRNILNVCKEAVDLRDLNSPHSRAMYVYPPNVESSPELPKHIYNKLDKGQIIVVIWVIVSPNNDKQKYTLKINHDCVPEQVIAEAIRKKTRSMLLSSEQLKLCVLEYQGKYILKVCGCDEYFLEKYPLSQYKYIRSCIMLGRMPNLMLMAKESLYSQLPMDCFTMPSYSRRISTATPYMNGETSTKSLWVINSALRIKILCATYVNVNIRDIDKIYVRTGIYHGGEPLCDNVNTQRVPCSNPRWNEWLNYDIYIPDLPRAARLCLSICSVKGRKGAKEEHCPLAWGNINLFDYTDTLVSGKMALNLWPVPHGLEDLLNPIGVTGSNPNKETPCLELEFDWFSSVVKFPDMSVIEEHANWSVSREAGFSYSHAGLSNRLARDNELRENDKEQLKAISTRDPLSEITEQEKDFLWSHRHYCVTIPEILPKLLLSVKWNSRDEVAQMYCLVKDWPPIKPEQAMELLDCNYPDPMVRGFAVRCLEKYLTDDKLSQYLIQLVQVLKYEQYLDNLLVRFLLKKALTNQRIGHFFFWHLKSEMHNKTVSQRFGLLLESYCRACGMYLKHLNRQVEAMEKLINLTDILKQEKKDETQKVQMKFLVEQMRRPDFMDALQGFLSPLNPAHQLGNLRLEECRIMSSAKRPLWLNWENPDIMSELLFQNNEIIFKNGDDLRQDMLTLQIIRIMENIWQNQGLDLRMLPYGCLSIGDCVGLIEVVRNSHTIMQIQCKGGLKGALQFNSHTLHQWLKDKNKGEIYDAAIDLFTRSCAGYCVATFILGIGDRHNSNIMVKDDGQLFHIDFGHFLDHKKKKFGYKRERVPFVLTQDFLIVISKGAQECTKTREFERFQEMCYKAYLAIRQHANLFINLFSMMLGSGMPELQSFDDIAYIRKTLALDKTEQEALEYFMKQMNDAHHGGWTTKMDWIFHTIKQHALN
p110α catalytic subunit of PI3K, sequence (P27986 whole entry partner): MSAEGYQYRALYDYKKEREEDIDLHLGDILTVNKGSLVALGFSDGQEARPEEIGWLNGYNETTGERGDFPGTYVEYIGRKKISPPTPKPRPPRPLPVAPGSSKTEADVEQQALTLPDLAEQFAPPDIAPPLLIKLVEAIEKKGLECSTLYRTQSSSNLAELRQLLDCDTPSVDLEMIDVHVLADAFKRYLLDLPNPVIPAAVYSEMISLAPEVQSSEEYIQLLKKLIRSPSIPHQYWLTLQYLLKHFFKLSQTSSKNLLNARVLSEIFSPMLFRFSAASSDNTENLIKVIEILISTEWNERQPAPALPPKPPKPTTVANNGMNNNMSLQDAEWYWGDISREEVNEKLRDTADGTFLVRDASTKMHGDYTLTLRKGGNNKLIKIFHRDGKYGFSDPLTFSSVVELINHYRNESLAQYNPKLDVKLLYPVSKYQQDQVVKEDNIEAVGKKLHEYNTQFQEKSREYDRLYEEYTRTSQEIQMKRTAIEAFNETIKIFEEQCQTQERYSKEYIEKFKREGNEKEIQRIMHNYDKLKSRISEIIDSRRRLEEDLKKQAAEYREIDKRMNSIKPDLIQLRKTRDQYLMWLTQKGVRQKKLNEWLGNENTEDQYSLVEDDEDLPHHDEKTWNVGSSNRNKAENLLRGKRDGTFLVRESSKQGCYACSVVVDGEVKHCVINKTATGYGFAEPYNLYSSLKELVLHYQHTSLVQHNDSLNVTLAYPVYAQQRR

SMILES: COc1ccc(Cl)c(Nc2nc3ccccc3nc2NS(=O)(=O)c2cccc(NC(=O)C(C)(C)N)c2)c1 [Compound A]
- IC50 [1]: ≤ 6 µM
- IC50 [2]: 39 nM
- tumor growth, monotherapy (BT474 xenografts): significantly delayed tumor growth
- nuclear pAKT^S473 by IHC [3]: statistically inhibited nuclear pAKT levels
- pHER3 by IHC [3]: did not reduce membrane pHER3
- rate of decay of the HER3 protein (HER3 protein): not significantly altered
